Results as given in US9839622B2, “Methods of treating hypothalamic obesity” (Zafgen, Inc., priority 2012, dated 2017).

Columns and labels:
[1] = Treatment of obese humans also taking anti-depressants known to cause hypothalamic obesity; type: in vivo, human; settings: obese humans on anti-depressants, average dose 1.44 mg twice weekly subcutaneous
Protocol: FIG. 3 depicts percentage reduction in body weight by up to seven weeks of treatment with 6-O-(4-dimethylaminoethoxy)cinnamoyl fumagillol (ZGN-440; average dose of 1.44 mg administered twice weekly by subcutaneous administration, n=5) or placebo (administered twice weekly by subcutaneous administration, n=2) in obese human patients treated otherwise for depression with mirtazapine, sertraline, imipramine, paroxetine, or amitryptyline.
Five of these patients were also administered ZGN-440 (average dose of 1.44 mg, administered twice weekly by subcutaneous administration). On average, patients lost 5.4 percent of their baseline body weight over the seven week treatment. […] At baseline, the average (±SEM) body weight was 100.2±3.2 kg, and the average body mass index was 38.8±1.7 kg/m^2. […] (FIG. 3).

[2] = Mouse model of hypothalamic injury (gold thioglucose); type: in vivo, C57/BL6 mice; settings: 0.1 mg/kg daily subcutaneous
Protocol: FIG. 1 depicts body weight change (percent) of C57/BL6 mice treated with single dose of 0.5 g/kg gold thioglucose, and after 40 days, started on 0.1 mg/kg daily subcutaneous dose of 6-O-(4-dimethylaminoethoxy)cinnamoyl fumagillol (ZGN-440). FIG. 2 depicts normalized food intake in GTG mice to the level of normal mice that were not treated with gold thioglucose, after 0.1 mg/kg daily subcutaneous dose of 6-O-(4-dimethylaminoethoxy)cinnamoyl fumagillol. Gold thioglucose (GTG) is a chemical treatment used as a model of hypothalamic injury. C57/BL6 mice were treated with single dose of 0.5 g/kg gold thioglucose. After 40 days a cohort was started on 0.1 mg/kg daily subcutaneous dose of 6-O-(4-dimethylaminoethoxy)cinnamoyl fumagillol (ZGN-440). […] (FIG. 1). The food intake level of GTG treated mice was increased to over 3 g/day/mouse, where in GTG mice treated with ZGN-440 the food intake decreased to the level of normal mice that were not treated with gold thioglucose (below 3 g/day). (FIG. 2).

CO[C@@H]1[C@H](OC(=O)/C=C/c2ccc(OCCN(C)C)cc2)CC[C@]2(CO2)[C@H]1[C@@]1(C)O[C@@H]1CC=C(C)C [ZGN-440, 6-O-(4-dimethylaminoethoxy)cinnamoyl fumagillol]
loss of baseline body weight (average) ([1]; n=5, seven week treatment, FIG. 3): 5.4%
weight loss vs. placebo (percent change of body weight from baseline, Student's t test) ([1]; up to seven weeks, placebo failed to lose weight): statistically significant
body weight change ([2]; GTG (0.5 g/kg single dose) C57/BL6 mice, started after 40 days, FIG. 1): Significant weight loss
food intake ([2]; GTG mice, untreated GTG mice over 3 g/day/mouse, FIG. 2): below 3 g/day
